Tested on: 996289-038-R-J1-PDC complex spheroid viability
Assay: Anticancer human tumor 996289-038-R-J1-PDC patient-derived colon adenocarcinoma cell line growth inhibition [CLK]
Conditions: for IC50: curve of first compound; for viability, T/C: stronger effect = lower value
Summary of the method: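 Patient-derived tumor cells grown as complex spheroids with HUVEC endothelial cells and mesenchymal stem cells, treated with drug combinations. Concentrations descend in half-log steps from near clinical Cmax, or from 10 microM if Cmax unknown.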

[1] = second compound 0.0316 µM, first compound 0.00949 µM
[2] = second compound 0.0316 µM, first compound 0.03 µM
[3] = second compound 0.0316 µM, first compound 0.0949 µM
[4] = second compound 0.0316 µM, first compound 0.3 µM
[5] = second compound 0.1 µM, first compound 0.00949 µM
[6] = second compound 0.1 µM, first compound 0.03 µM
[7] = second compound 0.1 µM, first compound 0.0949 µM
[8] = second compound 0.1 µM, first compound 0.3 µM
[9] = second compound 0.316 µM, first compound 0.00949 µM
[10] = second compound 0.316 µM, first compound 0.03 µM
[11] = second compound 0.316 µM, first compound 0.0949 µM
[12] = second compound 0.316 µM, first compound 0.3 µM
[13] = second compound 1 µM, first compound 0.00949 µM
[14] = second compound 1 µM, first compound 0.03 µM
[15] = second compound 1 µM, first compound 0.0949 µM
[16] = second compound 1 µM, first compound 0.3 µM
[17] = second compound 3.16 µM, first compound 0.00949 µM
[18] = second compound 3.16 µM, first compound 0.03 µM
[19] = second compound 3.16 µM, first compound 0.0949 µM
[20] = second compound 3.16 µM, first compound 0.3 µM
[21] = second compound 10 µM, first compound 0.00949 µM
[22] = second compound 10 µM, first compound 0.03 µM
[23] = second compound 10 µM, first compound 0.0949 µM
[24] = second compound 10 µM, first compound 0.3 µM
[25] = second compound 0.0316 µM, first compound 0.0316 µM
[26] = second compound 0.0316 µM, first compound 0.1 µM
[27] = second compound 0.0316 µM, first compound 0.316 µM
[28] = second compound 0.0316 µM, first compound 1 µM
[29] = second compound 0.0316 µM, first compound 3.16 µM
[30] = second compound 0.0316 µM, first compound 10 µM
[31] = second compound 0.1 µM, first compound 0.0316 µM
[32] = second compound 0.1 µM, first compound 0.1 µM
[33] = second compound 0.1 µM, first compound 0.316 µM
[34] = second compound 0.1 µM, first compound 1 µM
[35] = second compound 0.1 µM, first compound 3.16 µM
[36] = second compound 0.1 µM, first compound 10 µM
[37] = second compound 0.316 µM, first compound 0.0316 µM
[38] = second compound 0.316 µM, first compound 0.1 µM
[39] = second compound 0.316 µM, first compound 0.316 µM
[40] = second compound 0.316 µM, first compound 1 µM
[41] = second compound 0.316 µM, first compound 3.16 µM
[42] = second compound 0.316 µM, first compound 10 µM
[43] = second compound 1 µM, first compound 0.0316 µM
[44] = second compound 1 µM, first compound 0.1 µM
[45] = second compound 1 µM, first compound 0.316 µM
[46] = second compound 1 µM, first compound 1 µM
[47] = second compound 1 µM, first compound 3.16 µM
[48] = second compound 1 µM, first compound 10 µM
[49] = second compound 3.16 µM, first compound 0.0316 µM
[50] = second compound 3.16 µM, first compound 0.1 µM
[51] = second compound 3.16 µM, first compound 0.316 µM
[52] = second compound 3.16 µM, first compound 1 µM
[53] = second compound 3.16 µM, first compound 3.16 µM
[54] = second compound 3.16 µM, first compound 10 µM
[55] = second compound 10 µM, first compound 0.0316 µM
[56] = second compound 10 µM, first compound 0.1 µM
[57] = second compound 10 µM, first compound 0.316 µM
[58] = second compound 10 µM, first compound 1 µM
[59] = second compound 10 µM, first compound 3.16 µM
[60] = second compound 10 µM, first compound 10 µM
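Also: spheroids exposed to the agents for 7 days before readout.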

SMILES: C=CC(=O)Nc1cc(Nc2nccc(-c3cn(C)c4ccccc34)n2)c(OC)cc1N(C)CCN(C)C + CN1CCN(c2cc(C(=O)Nc3cc4cc(-c5cnn(C)c5)ccc4cn3)ccn2)CC1
- IC50 (second compound 0.0316 µM): > 300 nM
- IC50 (second compound 0.1 µM): > 300 nM
- IC50 (second compound 0.316 µM): 91 nM
- IC50 (second compound 1 µM): < 0.949 nM
- IC50 (second compound 3.16 µM): < 0.949 nM
- IC50 (second compound 10 µM): < 0.949 nM
- viability, T/C (second compound 0.0316 µM, first compound 0.000949 µM): 104%
- viability, T/C (second compound 0.0316 µM, first compound 0.003 µM): 104%
- viability, T/C [1]: 105%
- viability, T/C [2]: 103%
- viability, T/C [3]: 99.8%
- viability, T/C [4]: 74.7%
- viability, T/C (second compound 0.1 µM, first compound 0.000949 µM): 93.7%
- viability, T/C (second compound 0.1 µM, first compound 0.003 µM): 93.7%
- viability, T/C [5]: 91.2%
- viability, T/C [6]: 84.4%
- viability, T/C [7]: 86%
- viability, T/C [8]: 65.9%
- viability, T/C (second compound 0.316 µM, first compound 0.000949 µM): 74.2%
- viability, T/C (second compound 0.316 µM, first compound 0.003 µM): 69%
- viability, T/C [9]: 63.5%
- viability, T/C [10]: 56.8%
- viability, T/C [11]: 53.5%
- viability, T/C [12]: 37.2%
- viability, T/C (second compound 1 µM, first compound 0.000949 µM): 6.28%
- viability, T/C (second compound 1 µM, first compound 0.003 µM): 6.22%
- viability, T/C [13]: 7.21%
- viability, T/C [14]: 6.93%
- viability, T/C [15]: 4.43%
- viability, T/C [16]: 1.67%
- viability, T/C (second compound 3.16 µM, first compound 0.000949 µM): 0.79%
- viability, T/C (second compound 3.16 µM, first compound 0.003 µM): 1.11%
- viability, T/C [17]: 1.16%
- viability, T/C [18]: 1.29%
- viability, T/C [19]: 0.93%
- viability, T/C [20]: 0.71%
- viability, T/C (second compound 10 µM, first compound 0.000949 µM): 1.47%
- viability, T/C (second compound 10 µM, first compound 0.003 µM): 0.58%
- viability, T/C [21]: 0.99%
- viability, T/C [22]: 1.04%
- viability, T/C [23]: 0.51%
- viability, T/C [24]: 1.04%

SMILES: CC1(C)CCC(CN2CCN(c3ccc(C(=O)NS(=O)(=O)c4ccc(NCC5CCOCC5)c([N+](=O)[O-])c4)c(Oc4cnc5[nH]ccc5c4)c3)CC2)=C(c2ccc(Cl)cc2)C1 + CN1CCN(c2cc(C(=O)Nc3cc4cc(-c5cnn(C)c5)ccc4cn3)ccn2)CC1
- IC50 (second compound 0.0316 µM): 8460 nM
- IC50 (second compound 0.1 µM): 6780 nM
- IC50 (second compound 0.316 µM): 5350 nM
- IC50 (second compound 1 µM): < 31.6 nM
- IC50 (second compound 3.16 µM): < 31.6 nM
- IC50 (second compound 10 µM): < 31.6 nM
- viability, T/C [25]: 107%
- viability, T/C [26]: 92.1%
- viability, T/C [27]: 99.5%
- viability, T/C [28]: 104%
- viability, T/C [29]: 111%
- viability, T/C [30]: 41%
- viability, T/C [31]: 93.1%
- viability, T/C [32]: 92.7%
- viability, T/C [33]: 91.3%
- viability, T/C [34]: 102%
- viability, T/C [35]: 92.1%
- viability, T/C [36]: 28.4%
- viability, T/C [37]: 72.2%
- viability, T/C [38]: 70.9%
- viability, T/C [39]: 74.3%
- viability, T/C [40]: 71.2%
- viability, T/C [41]: 80.5%
- viability, T/C [42]: 21.6%
- viability, T/C [43]: 5.73%
- viability, T/C [44]: 6.71%
- viability, T/C [45]: 6.34%
- viability, T/C [46]: 6.11%
- viability, T/C [47]: 7.84%
- viability, T/C [48]: 4.96%
- viability, T/C [49]: 3.72%
- viability, T/C [50]: 2.29%
- viability, T/C [51]: 1.42%
- viability, T/C [52]: 3.37%
- viability, T/C [53]: 1.39%
- viability, T/C [54]: 1.49%
- viability, T/C [55]: 2.97%
- viability, T/C [56]: 0.51%
- viability, T/C [57]: 2.24%
- viability, T/C [58]: 0.81%
- viability, T/C [59]: 0.61%
- viability, T/C [60]: 0.62%

SMILES: NC(=O)C(=Cn1cnc(-c2cc(C(F)(F)F)cc(C(F)(F)F)c2)n1)c1cncnc1 + CN1CCN(c2cc(C(=O)Nc3cc4cc(-c5cnn(C)c5)ccc4cn3)ccn2)CC1
- IC50 (second compound 0.0316 µM): 53.7 nM
- IC50 (second compound 0.1 µM): 29.4 nM
- IC50 (second compound 0.316 µM): < 9.49 nM
- IC50 (second compound 1 µM): < 9.49 nM
- IC50 (second compound 3.16 µM): < 9.49 nM
- IC50 (second compound 10 µM): < 9.49 nM
- viability, T/C [1]: 73.6%
- viability, T/C [2]: 64%
- viability, T/C [3]: 36.1%
- viability, T/C [4]: 18.6%
- viability, T/C (second compound 0.0316 µM, first compound 0.949 µM): 10.6%
- viability, T/C (second compound 0.0316 µM, first compound 3 µM): 11.7%
- viability, T/C [5]: 68%
- viability, T/C [6]: 49.7%
- viability, T/C [7]: 24.9%
- viability, T/C [8]: 11.1%
- viability, T/C (second compound 0.1 µM, first compound 0.949 µM): 4.64%
- viability, T/C (second compound 0.1 µM, first compound 3 µM): 5.12%
- viability, T/C [9]: 33.9%
- viability, T/C [10]: 19.1%
- viability, T/C [11]: 2.74%
- viability, T/C [12]: 0.87%
- viability, T/C (second compound 0.316 µM, first compound 0.949 µM): 1.43%
- viability, T/C (second compound 0.316 µM, first compound 3 µM): 1.38%
- viability, T/C [13]: 0.93%
- viability, T/C [14]: 0.76%
- viability, T/C [15]: 0.81%
- viability, T/C [16]: 1.31%
- viability, T/C (second compound 1 µM, first compound 0.949 µM): 1.15%
- viability, T/C (second compound 1 µM, first compound 3 µM): 2.01%
- viability, T/C [17]: 1.17%
- viability, T/C [18]: 0.72%
- viability, T/C [19]: 1.2%
- viability, T/C [20]: 1.12%
- viability, T/C (second compound 3.16 µM, first compound 0.949 µM): 1.5%
- viability, T/C (second compound 3.16 µM, first compound 3 µM): 2.18%
- viability, T/C [21]: 0.52%
- viability, T/C [22]: 0.5%
- viability, T/C [23]: 0.74%
- viability, T/C [24]: 0.52%
- viability, T/C (second compound 10 µM, first compound 0.949 µM): 0.45%
- viability, T/C (second compound 10 µM, first compound 3 µM): 1.52%

SMILES: Nc1ccccc1NC(=O)c1ccc(CNC(=O)OCc2cccnc2)cc1 + CN1CCN(c2cc(C(=O)Nc3cc4cc(-c5cnn(C)c5)ccc4cn3)ccn2)CC1
- IC50 (second compound 0.0316 µM): 6350 nM
- IC50 (second compound 0.1 µM): 5030 nM
- IC50 (second compound 0.316 µM): 2330 nM
- IC50 (second compound 1 µM): < 31.6 nM
- IC50 (second compound 3.16 µM): < 31.6 nM
- IC50 (second compound 10 µM): < 31.6 nM
- viability, T/C [25]: 99.7%
- viability, T/C [26]: 103%
- viability, T/C [27]: 91.4%
- viability, T/C [28]: 81.7%
- viability, T/C [29]: 61.8%
- viability, T/C [30]: 42.3%
- viability, T/C [31]: 110%
- viability, T/C [32]: 88.1%
- viability, T/C [33]: 83.7%
- viability, T/C [34]: 71.1%
- viability, T/C [35]: 60%
- viability, T/C [36]: 38.3%
- viability, T/C [37]: 70.1%
- viability, T/C [38]: 64.8%
- viability, T/C [39]: 64.3%
- viability, T/C [40]: 60.4%
- viability, T/C [41]: 46.4%
- viability, T/C [42]: 20.9%
- viability, T/C [43]: 8.94%
- viability, T/C [44]: 5.54%
- viability, T/C [45]: 6.13%
- viability, T/C [46]: 3.31%
- viability, T/C [47]: 1.46%
- viability, T/C [48]: 1.42%
- viability, T/C [49]: 0.74%
- viability, T/C [50]: 0.78%
- viability, T/C [51]: 0.83%
- viability, T/C [52]: 2.18%
- viability, T/C [53]: 1.99%
- viability, T/C [54]: 1.71%
- viability, T/C [55]: 0.41%
- viability, T/C [56]: 1.24%
- viability, T/C [57]: 1.06%
- viability, T/C [58]: 0.6%
- viability, T/C [59]: 0.7%
- viability, T/C [60]: 1.88%
